From patent publication US20110002843A1, “METHOD OF DETECTING MYOCARDIAL DYSFUNCTION IN PATIENTS HAVING A HISTORY OF ASTHMA OR BRONCHOSPASM” (priority 2005, published 2011)

How the values were obtained:
Adenosine Receptor A1 [1] = target: T1, Adenosine Receptor A1 (Cavia porcellus, UniProt P47745); test: G.P. Left Atrium (Negative Inotropy) bioassay; parameters: species or system guinea pig
T1 construct: prepared guinea pig assays for binodenoson; from tissue; host or cells: isolated guinea pig right / left atrium
T1 sequence (P47745 1-326): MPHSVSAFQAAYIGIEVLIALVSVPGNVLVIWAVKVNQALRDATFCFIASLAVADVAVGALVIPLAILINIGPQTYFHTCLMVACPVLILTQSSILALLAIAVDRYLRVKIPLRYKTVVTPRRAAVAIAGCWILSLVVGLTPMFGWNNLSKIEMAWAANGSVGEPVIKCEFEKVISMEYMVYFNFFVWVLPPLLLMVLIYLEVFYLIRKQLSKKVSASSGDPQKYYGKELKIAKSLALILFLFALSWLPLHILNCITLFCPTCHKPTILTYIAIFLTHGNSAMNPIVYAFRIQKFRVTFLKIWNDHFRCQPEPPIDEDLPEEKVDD
Text: (§1) It is further preferable to use compounds that are selective for the A2A receptor over the A2B receptor. Additional methods are known in the art for performing bioassays and are useful to identify selectivity to the A2B receptor as well as confirming selectivity and potency in vivo. Such bioassays are typically performed prior to animal and human trials.

Adenosine Receptor A1 [2] = target: T1, Adenosine Receptor A1; test: G.P. Right Atrium (Negative Chronotropy) bioassay; parameters: species or system guinea pig
Text: as §1

A1 adenosine receptor = target: T2, A1 adenosine receptor (Cavia porcellus, UniProt P47745); test: Langendorff guinea pig heart preparation, prolongation of stimulus-QRS interval (negative dromotropy)
T2 sequence (P47745 1-326): T1 sequence (P47745 1-326)
Experimental: The A1/A2A selectivity in Table 1 was calculated as the quotient of the EC50 of stimulus-QRS prolongation divided by the EC50 of coronary vasodilation.

Nc1nc(N/N=C/C2CCCCC2)nc2c1ncn2[C@@H]1O[C@H](CO)[C@@H](O)[C@H]1O (stereo in doubt) [Binodenoson, 2-{2-[(Cyclohexyl)methylene]hydrazino}adenosine]
EC50 (Adenosine Receptor A1 [1]): 38.9 µM | EC50 (Adenosine Receptor A1 [2]): 39.8 µM | EC50 (A1 adenosine receptor): 3.5 µM
